According to ChEMBL document CHEMBL5543072, “Discovery of a novel lead characterized by a stilbene-extended scaffold against sepsis as soluble epoxide hydrolase inhibitors” (Eur J Med Chem, 2024):

How the values were obtained:
[1] = Apparent volume of distribution in Sprague-Dawley rat at 20 mg/kg, po measured after 24 hrs; format: ADME, organism-based; settings: in vivo
Mus musculus [2] = assay: Protection against LPS-induced sepsis in C57BL/6J mouse model assessed as survival rate at 5 mg/kg, iv measured after 48 hrs relative to control; format: functional
Mus musculus [3] = assay: Protection against LPS-induced sepsis in C57BL/6J mouse model assessed as survival rate at 0.05 mg/kg, iv measured after 24 hrs relative to control; format: functional
[4] = Cytotoxicity in HEK293T cells assessed as cell viability at 5 uM incubated for 48 hrs by CCK8 assay relative to control; format: toxicity, cell-based, HEK-293T; settings: human, read-out: Activity
[5] = Cytotoxicity against human HepG2 cells assessed as cell viability at 5 uM incubated for 48 hrs by CCK8 assay relative to control; format: toxicity, cell-based; settings: read-out: Activity
[6] = biological target: T1, Bifunctional epoxide hydrolase 2 (Mus musculus, UniProt P34914)
T1 sequence (P34914 whole entry): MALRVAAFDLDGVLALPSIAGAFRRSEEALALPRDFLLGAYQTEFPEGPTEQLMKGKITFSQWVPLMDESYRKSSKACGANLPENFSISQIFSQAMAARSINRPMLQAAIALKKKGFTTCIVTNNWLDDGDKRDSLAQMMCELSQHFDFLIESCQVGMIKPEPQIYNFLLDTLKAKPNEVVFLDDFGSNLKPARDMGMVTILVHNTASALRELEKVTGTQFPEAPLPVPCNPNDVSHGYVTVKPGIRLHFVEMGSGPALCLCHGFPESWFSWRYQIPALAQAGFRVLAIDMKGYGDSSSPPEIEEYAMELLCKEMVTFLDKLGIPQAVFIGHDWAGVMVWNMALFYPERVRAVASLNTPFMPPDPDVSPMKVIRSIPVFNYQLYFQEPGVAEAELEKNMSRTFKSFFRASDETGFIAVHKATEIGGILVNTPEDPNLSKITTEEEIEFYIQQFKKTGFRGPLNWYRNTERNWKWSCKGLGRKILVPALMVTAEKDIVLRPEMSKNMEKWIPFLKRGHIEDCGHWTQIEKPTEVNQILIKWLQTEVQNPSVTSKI

Mus musculus [7] = assay: Protection against LPS-induced sepsis in C57BL/6J mouse model assessed as […] at 5 mg/kg, iv measured after 24 hrs relative to control; format: functional
Mus musculus [8] = assay: Protection against LPS-induced sepsis in C57BL/6J mouse model assessed as survival rate at 5 mg/kg, iv measured after 24 hrs relative to control; format: functional
Mus musculus [9] = assay: Protection against LPS-induced sepsis in C57BL/6J mouse model assessed as survival rate at 0.05 mg/kg, iv measured after 48 hrs relative to control; format: functional
[10] = Half-life in Sprague-Dawley rat at 20 mg/kg, po measured after 24 hrs; format: ADME, organism-based; settings: in vivo
Mus musculus [11] = assay: Protection against LPS-induced sepsis in C57BL/6J mouse model assessed as survival rate at 30 mg/kg, iv measured upto 56 hrs relative to control; format: functional
Mus musculus [12] = assay: Protection against LPS-induced sepsis in C57BL/6J mouse model assessed as survival rate at 0.5 mg/kg, iv measured after 72 hrs relative to control; format: functional
[13] = Tmax in Sprague-Dawley rat at 5 mg/kg, iv measured after 24 hrs; format: ADME, organism-based; settings: in vivo
[14] = AUC (0 to 24 hrs)in C57BL/6J mouse blood at 5 mg/kg, ip measured after 24 hrs by LC-MS/MS analysis; format: ADME, organism-based
[15] = Cmax in Sprague-Dawley rat at 5 mg/kg, iv measured after 24 hrs; format: ADME, organism-based; settings: in vivo
Mus musculus [16] = assay: Protection against LPS-induced sepsis in C57BL/6J mouse model assessed as survival rate at 0.5 mg/kg, iv measured after 48 hrs relative to control; format: functional
in vivo = settings: C57BL/6J, mouse, other tissue, ip, 5 mg/kg
Description: Ratio of Cmax in C57BL/6J mouse liver to blood at 5 mg/kg, ip measured after 24 hrs by LC-MS/MS analysis

Mus musculus [17] = assay: Anti-inflammatory activity in LPS-induced C57BL/6J mouse model of sepsis assessed as IL-6 in liver at 5 mg/kg, ip preadministered with compound for 24 hrs followed by LPS administration and measured after 3 hrs by ELISA (reference value: 308 pg/ml); format: functional; settings: time 27 hrs
[18] = Cmax in C57BL/6J mouse liver at 5 mg/kg, ip measured after 24 hrs by LC-MS/MS analysis; format: ADME, organism-based
[19] = biological target: T2, Bifunctional epoxide hydrolase 2 (Homo sapiens, UniProt P34913)
T2 sequence (P34913 whole entry): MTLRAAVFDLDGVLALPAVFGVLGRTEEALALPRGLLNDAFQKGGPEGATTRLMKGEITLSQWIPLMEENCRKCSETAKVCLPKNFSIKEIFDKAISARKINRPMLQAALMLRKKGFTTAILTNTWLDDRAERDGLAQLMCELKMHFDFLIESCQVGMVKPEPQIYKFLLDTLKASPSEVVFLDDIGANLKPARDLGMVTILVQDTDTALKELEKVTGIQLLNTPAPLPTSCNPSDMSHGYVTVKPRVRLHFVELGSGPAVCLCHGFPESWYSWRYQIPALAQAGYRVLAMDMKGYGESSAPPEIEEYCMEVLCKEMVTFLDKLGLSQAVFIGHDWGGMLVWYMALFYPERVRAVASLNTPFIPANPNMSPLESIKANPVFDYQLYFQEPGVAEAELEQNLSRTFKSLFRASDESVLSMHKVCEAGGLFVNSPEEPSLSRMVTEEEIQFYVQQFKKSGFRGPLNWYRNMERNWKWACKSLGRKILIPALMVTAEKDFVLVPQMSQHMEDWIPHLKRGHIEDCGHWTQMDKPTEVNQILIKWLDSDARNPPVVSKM

[20] = Oral bioavailability in Sprague-Dawley rat at 20 mg/kg measured after 24 hrs; format: ADME, organism-based; settings: in vivo
Mus musculus [21] = assay: Protection against LPS-induced sepsis in C57BL/6J mouse model assessed as survival rate at 30 mg/kg, iv measured after 24 hrs relative to control; format: functional
Mus musculus [22] = assay: Protection against LPS-induced sepsis in C57BL/6J mouse model assessed as survival rate at 0.05 mg/kg, iv measured after 72 hrs relative to control; format: functional
[23] = AUC (0 to 24 hrs) in Sprague-Dawley rat at 20 mg/kg, po measured after 24 hrs; format: ADME, organism-based; settings: in vivo
Mus musculus [24] = assay: Protection against LPS-induced sepsis in C57BL/6J mouse model assessed as survival rate at 5 mg/kg, iv measured after 72 hrs relative to control; format: functional
Mus musculus [25] = assay: Protection against LPS-induced sepsis in C57BL/6J mouse model assessed as […] at 5 mg/kg, iv measured after 32 hrs relative to control; format: functional
[26] = Tmax in Sprague-Dawley rat at 20 mg/kg, po measured after 24 hrs; format: ADME, organism-based; settings: in vivo
[27] = Apparent volume of distribution in Sprague-Dawley rat at 5 mg/kg, iv measured after 24 hrs; format: ADME, organism-based; settings: in vivo, read-out: Vz

O=C(Cc1ccccn1)Nc1cccc(/C=C/c2ccc(NC(=O)NCC3CCOCC3)cc2)c1
Vz [1]: 4132.531 L/kg
survival at 5 mg/kg (Mus musculus [2]): 40%
survival at 0.05 mg/kg (Mus musculus [3]): 30%
viability at 48 h, 5 µM [4]: 82.9%
viability at 48 h, 5 µM [5]: 73.9%
IC50 [6]: 4.02 nM
Activity (Mus musculus [7]): 40%
survival at 5 mg/kg (Mus musculus [8]): 60%
survival at 0.05 mg/kg (Mus musculus [9]): 10%
half-life [10]: 131 min
survival at 30 mg/kg (Mus musculus [11]): > 50%
survival at 0.5 mg/kg (Mus musculus [12]): 40%
Tmax [13]: 4.8 min
AUC(0-t) at 24 h [14]: 0.122 µg·h/mL
Cmax [15]: 0.66 µg/mL
survival at 0.5 mg/kg (Mus musculus [16]): 40%
Kp at 24 h (in vivo): 7.6
Activity (Mus musculus [17]): 270 pg/mL
Cmax [18]: 2510 ng/g
IC50 [19]: 1.52 nM
bioavailability [20]: 5.1%
survival at 30 mg/kg (Mus musculus [21]): 60%
survival at 0.05 mg/kg (Mus musculus [22]): 10%
AUC [23]: 0.048 µg·h/mL
survival at 5 mg/kg (Mus musculus [24]): 40%
Activity (Mus musculus [25]): 40%
Tmax [26]: 30 min
Vd [27]: 10.8 L/kg
